Reference: paper PMC8998611, “Identification of Novel GSK-3β Hits Using Competitive Biophysical Assays” (International Journal of Molecular Sciences, 2022)

Columns and labels:
LOK1 = target: T1, LOK1 (Homo sapiens, UniProt O94804); assay: Eurofins Kinase Diversity Panel, LOK1; type: biochemical; details: 20 µM compound; ATP at Km ± 15 µM; read-out: inhibitory effect on LOK1
T1 construct: purchased Eurofins (Kinase Diversity Panel service)
Experimental: (§1) To further characterize the inhibitory activity of the two selected fragments, the selectivity of G5 and G12 towards a panel of 58 kinases of the humane proteome was evaluated using the “Kinase screening and profiling” service of Eurofins, Luxembourg (Kinase Diversity Panel). […] Results are reported in Supplementary Figures S2 and S3.

GSK-3β [1] = target: T2, GSK-3β (Homo sapiens, UniProt P49841); assay: LANCE Ultra TR-FRET GSK-3β kinase inhibition assay (ULight-GS phosphorylation); type: biochemical; details: 1 µM ATP, 50 nM ULight-GS; for inhibition at 1 µM: 1 μM compound; for inhibition at 1 µM / inhibition at 5 µM / inhibition at 50 µM / inhibition at 100 µM: mean ± SD; for inhibition at 5 µM: 5 μM compound; for inhibition at 50 µM: 50 μM compound; for inhibition at 100 µM: 100 μM compound; for IC50: dose-response 30 nM to 200 μM
T2 sequence (P49841 whole entry): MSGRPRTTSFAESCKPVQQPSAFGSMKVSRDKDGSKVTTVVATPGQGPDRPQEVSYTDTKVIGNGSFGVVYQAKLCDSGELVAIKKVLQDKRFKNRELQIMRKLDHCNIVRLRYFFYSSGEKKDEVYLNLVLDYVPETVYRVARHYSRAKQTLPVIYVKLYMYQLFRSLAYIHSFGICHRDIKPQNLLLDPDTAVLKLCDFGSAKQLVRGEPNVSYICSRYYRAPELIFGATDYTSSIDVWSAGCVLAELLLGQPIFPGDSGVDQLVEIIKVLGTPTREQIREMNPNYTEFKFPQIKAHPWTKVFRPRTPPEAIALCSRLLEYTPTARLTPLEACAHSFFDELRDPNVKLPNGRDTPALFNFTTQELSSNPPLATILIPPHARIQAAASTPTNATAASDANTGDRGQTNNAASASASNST
Experimental: To assess if the identified GSK-3β binders were also able to affect kinase activity, the inhibitory activity of the four identified hit compounds was tested at four concentrations (1-5-50-100 μM) using the LANCE® Ultra (Perkin Elmer, Waltham, MA, USA) time-resolved fluorescence resonance energy transfer (TR-FRET) assay. The assay measures the ability of GSK-3β to phosphorylate a specific substrate, human Muscle Glycogen Synthase (ULight-GS ([…]/pSer657)), in the presence and absence of the identified ligands. […] Specifically, IC50 values were (14.81 ± 0.55) μM and (15.25 ± 1.34) μ[…] and G12, respectively (Figure 5). The GSK-3β kinase assay was run in 384 well microplates (OptiPlate^TM-384, White, Perkin Elmer) with a total reaction volume of 20 μL. The inhibitory potency against human recombinant GSK-3β was evaluated using the LANCE® Ultra (Perkin Elmer) time-resolved fluorescence resonance energy transfer (TR-FRET) by measuring the phosphorylation of the specific substrate, human Muscle Glycogen Synthase (ULight-GS ([…]/pSer657)), according to the manufacturer's instructions. […] The reaction was initiated by adding 50 nM of the substrate ULight-[…] and 1 μM ATP. The mixture was incubated for 1 h at 23 °C. Afterward, the reaction was stopped by adding 8 mM EDTA. After 5 min, the anti-phospho-GS antibody labeled with europium chelate was added. 1 h later, the kinase reaction was monitored by irradiation at 320 nm, and the fluorescence was measured at 615 and 665 nm, using EnVision 2014 Multilabel Reader (PerkinElmer). The calculated signal ratio at 665/615 nm was proportional to the extent of ULight-GS phosphorylation. The compounds were screened at four concentrations (1-5-50-100 μM). For selected compounds, dose-response curves, ranging from 30 nM up to 200 μM, were performed. Dose-response curves were run in three independent experiments, each performed in three technical replicates. IC50 values (concentrations causing half-maximal response or enzyme inhibition) were determined by non-linear regression analysis of the Log [concentration]/response curves generated with mean replicate values using a four parameter Hill equation curve fitting with GraphPad Prism 8 (GraphPad Software Inc., San Diego, CA, USA).

GSK-3β [2] = target: T2, GSK-3β; assay: 19F T2 filter NMR ligand-based binding experiments; design: made in house; host or cells: Sf9 cells; details: in presence of GSK-3β and 1 mM or 3 mM AMP-PNP
Experimental: GSK-3β was pre-incubated at room temperature for 10 min in the presence of 1 mM AMP-PNP before addition to the mixtures. […] On the contrary, NMR signals of the non-binding molecules were not affected by the presence of the target protein. Molecules selected from this first NMR screening were then tested as a single compound under the same screening conditions in the presence of two non-binding compounds as negative controls. The promising compounds, still showing binding to GSK-3β when tested as singles, were retested also in the presence of 3 mM AMP-PNP (among these, G5 and G12, whose NMR spectra are reported in Figure 2a,b, respectively). […] These hits were then further analyzed and characterized through different biophysical approaches.
All NMR screening experiments were recorded at 298 K with a Bruker FT NMR Avance III 600 MHz spectrometer, equipped with a 5 mm CryoProbe™ QCI ^1H/^19F–^13C/^15N–D with an automatic sample changer SampleJet™ with temperature control. All GSK-3β experiments were performed at low enzyme concentration (750 nM/1 μM) in 60 mM Hepes pH 7.5, 25 mM NaCl, 10 mM MgCl2, 2 mM TCEP, 8% D2O (for lock signal), 0.003% Triton X-100 (for the coating of NMR tube wall). […]

SAPK2a = target: T3, SAPK2a (Homo sapiens, UniProt Q16539); assay: Eurofins Kinase Diversity Panel, SAPK2a; type: biochemical; details: 20 µM compound, ATP at Km ± 15 µM
T3 construct: purchased Eurofins (Kinase Diversity Panel service)
T3 sequence (Q16539 whole entry): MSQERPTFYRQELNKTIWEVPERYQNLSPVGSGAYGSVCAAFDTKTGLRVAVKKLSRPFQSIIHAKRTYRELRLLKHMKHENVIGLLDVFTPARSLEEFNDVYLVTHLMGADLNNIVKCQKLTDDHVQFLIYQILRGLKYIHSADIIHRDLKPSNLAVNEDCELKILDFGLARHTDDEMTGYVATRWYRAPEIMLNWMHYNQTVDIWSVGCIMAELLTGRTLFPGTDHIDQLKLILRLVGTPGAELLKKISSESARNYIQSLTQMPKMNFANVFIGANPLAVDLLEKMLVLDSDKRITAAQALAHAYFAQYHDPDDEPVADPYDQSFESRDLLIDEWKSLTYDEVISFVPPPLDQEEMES
Experimental: as §1

TAK1 = target: T4, TAK1 (Homo sapiens, UniProt O43318); assay: Eurofins Kinase Diversity Panel, TAK1; type: biochemical; details: 20 µM compound; ATP at Km ± 15 µM; read-out: inhibitory effect on TAK1
T4 construct: purchased Eurofins (Kinase Diversity Panel service)
T4 sequence (O43318 1-303 limits assumed): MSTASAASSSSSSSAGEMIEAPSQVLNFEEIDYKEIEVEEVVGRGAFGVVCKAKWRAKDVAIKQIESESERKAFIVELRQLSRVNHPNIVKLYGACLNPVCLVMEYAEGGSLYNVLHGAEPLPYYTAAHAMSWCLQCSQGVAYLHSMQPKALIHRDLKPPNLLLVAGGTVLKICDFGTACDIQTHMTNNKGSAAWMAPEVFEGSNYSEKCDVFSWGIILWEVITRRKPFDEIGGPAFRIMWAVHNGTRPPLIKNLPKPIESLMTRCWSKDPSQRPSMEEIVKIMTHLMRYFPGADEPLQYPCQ
Experimental: as §1

T1 sequence (O94804 whole entry): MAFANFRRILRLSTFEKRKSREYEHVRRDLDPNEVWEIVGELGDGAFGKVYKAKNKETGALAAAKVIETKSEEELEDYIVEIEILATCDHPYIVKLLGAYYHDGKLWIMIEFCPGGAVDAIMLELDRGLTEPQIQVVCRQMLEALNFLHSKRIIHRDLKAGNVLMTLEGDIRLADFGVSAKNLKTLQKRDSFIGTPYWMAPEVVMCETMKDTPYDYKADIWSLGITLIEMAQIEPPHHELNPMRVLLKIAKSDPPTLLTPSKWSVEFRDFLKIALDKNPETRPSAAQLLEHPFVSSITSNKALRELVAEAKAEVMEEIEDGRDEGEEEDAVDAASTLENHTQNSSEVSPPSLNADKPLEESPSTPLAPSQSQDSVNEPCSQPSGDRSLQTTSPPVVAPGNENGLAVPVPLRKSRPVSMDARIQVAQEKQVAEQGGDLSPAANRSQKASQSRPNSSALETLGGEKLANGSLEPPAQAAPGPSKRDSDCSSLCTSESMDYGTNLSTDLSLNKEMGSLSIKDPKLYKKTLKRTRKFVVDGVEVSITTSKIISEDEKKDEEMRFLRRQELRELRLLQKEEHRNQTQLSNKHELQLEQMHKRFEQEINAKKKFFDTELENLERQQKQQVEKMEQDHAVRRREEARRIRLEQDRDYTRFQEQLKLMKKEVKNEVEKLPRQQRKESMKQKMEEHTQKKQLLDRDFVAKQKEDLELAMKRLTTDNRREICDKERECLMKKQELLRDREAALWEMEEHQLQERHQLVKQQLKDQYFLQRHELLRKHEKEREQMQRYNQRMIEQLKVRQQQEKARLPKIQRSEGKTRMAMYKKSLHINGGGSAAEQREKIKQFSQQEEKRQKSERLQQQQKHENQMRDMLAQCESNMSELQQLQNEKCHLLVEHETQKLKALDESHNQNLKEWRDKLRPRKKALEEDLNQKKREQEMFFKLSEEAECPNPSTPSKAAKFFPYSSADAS

| inhibition at 20 µM (LOK1) | inhibition at 1 µM (GSK-3β [1]) | inhibition at 5 µM (GSK-3β [1]) | inhibition at 50 µM (GSK-3β [1]) | inhibition at 100 µM (GSK-3β [1]) | IC50 (GSK-3β [1]) | binding by 19F T2 filter NMR (line broadening of signal) (GSK-3β [2]) | inhibition at 20 µM (SAPK2a; read-out: inhibitory effect on SAPK2a) | inhibition at 20 µM (TAK1) | inhibitory effect on SAPK2a (SAPK2a) | Compound |
| --- | --- | --- | --- | --- | --- | --- | --- | --- | --- | --- |
| 21% | 0.3 ± 0.1% | 13.4 ± 2% | 69.4 ± 2% | > 80% | 14.8 ± 0.55 µM | strong line broadening | 19% | – | – | CS(=O)(=O)N1CC(c2nc(N)ncc2-c2ccc(F)cc2)C1 [G5] |
| – | 8.5 ± 0.1% | 15.2 ± 2.7% | 71.4 ± 1.7% | > 80% | 15.2 ± 1.34 µM | strong line broadening | – | 20% | no inhibitory effect | O=C(Nc1ccccn1)C1CCN(C(=O)CCc2ccccc2F)C1 (stereo not shown) [G12] |
